Assay results as given in patent US12433911B2, “Preparation and storage of liposomal RNA formulations suitable for therapy” (BIONTECH SE, priority 2019, dated 2025).
Read-outs that look alike come from different tables or passages of the source. One block for each compound: values may come before it.

What was measured:
[1] = DOPE and DOPE/DOTMA solubility in ethanol (HPLC); assay type: physicochemical; details: for DOPE solubility in ethanol comprising 220 mM DOTMA, mM after Filtration: DOTMA/DOPE 66:33 in ethanol abs.
Description: DOPE and DOPE/DOTMA solubility in ethanol was investigated by preparing 300 mM DOPE or 330 mM DOPE/DOTMA (66:33) solutions in ethanol. The lipids were dissolved by incubating the lipid solutions at 37° C. for 20 minutes. The DOPE solutions were centrifuged at 17000 G for 1 h and the DOPE concentration was measured in the supernatant by HPLC. The DOTMA/DOPE solutions were filtered through a 0.22 μm PES syringe filter and the lipid concentration was measured in the filtrate by HPLC.
Lipid concentration in the different liposome formulations were measured by HPLC (Agilent technologies. Santa Clara. USA) using a Sunfire C18 2.5 μm 4.6×75 mm column (Waters, Massachusetts USA) and a wave length of 205 nm. Mobile phase A was a mixture of 70% methanol/30% isopropanol/0.1% TFA, mobile phase B was a mixture of 55% methanol/15% isopropanol/30% water/0.1% TFA. Liposomes samples were or not diluted with water to 3 mM total lipid concentration.
It has been tested if DOPE-containing solutions of higher concentration can be prepared (in the supersaturated state) and used for ethanol injection for liposome manufacturing (next section).

[2] = Freezing of RNA lipoplexes with cryoprotectants and NaCl, particle size; assay type: physicochemical; details: for preservation of particle size: single freezing step, 0 to 60 mM NaCl, 20% (w/v) cryoprotectant
Description: Methods: Different compounds representative for monosaccharides (glucose and sorbitol), disaccharides (sucrose and trehalose), amino acids (arginine, prolin), triols (glycerin) as well as cryoprotectant systems containing mixtures of different sugars (mannitol and sucrose) were investigated in order to identify suited cryoprotectants (FIGS. 25 and 26). Therefore RNA lipoplexes were frozen in the presence of increasing concentration of these compounds. In order to identify minimum content of cryoprotectant at a certain concentration of NaCl, RNA lipoplexes were frozen in the presence of increasing amounts of sucrose or trehalose as representative cryoprotectants (Table 7). The samples were initially frozen a single time in order to determine the concentration range of cryoprotectant to be investigated in detail. In a third experiment, the efficacy of stabilization of the particle size was challenged by freezing of the RNA lipoplexes up to 10 times in the presence of the cryoprotectant trehalose (Table 8).

[3] = Buffer, pH, NaCl and sucrose stability studies at +25° C. and −15° C. (PCS, pH, capillary electrophoresis); details: for stability of the RNA in RNA lipoplexes: Example 2.1, accelerated conditions (25°); for preservation of the particle size and the polydispersity: Example 2.1, frozen state (−15° C.)
Description: RNA lipoplexes are incubated under accelerated conditions (25° C.) in the presence of an exemplarily cryoprotectant. RNA integrity was analyzed by capillary electrophoresis over 60 days. Additionally, RNA lipoplexes are incubated under at the anticipated storage conditions (−15° C.) in the presence of an exemplarily cryoprotectant for up to two years. RNA integrity was analyzed by capillary electrophoresis.
The respective RNA lipoplexes were investigated under accelerated conditions (25° C.) and in the frozen state (−15° C.).
RNA lipoplexes were formed with liposomes containing 2 mM of acetic acid. The respective RNA lipoplexes were investigated under accelerated conditions (25° C.) and in the frozen state (−15° C.).
Method: All RNA lipoplexes were automatically prepared in a single batch and the different concentrations of HEPES were adjusted by the addition of a cryoprotectant solution containing different amounts of HEPES. Particle sizes and polydispersity of RNA lipolexes were analyzed by photon correlation spectroscopy (PCS) measurements. Additionally, the RNA integrity was analyzed by capillary electrophoresis and the pH was measured.
In the following study, the concentration of HEPES which is required for stabilization of the pH of the RNA lipoplexes was investigated. RNA lipoplexes were formed with liposomes containing 5 mM of acetic acid and different concentrations of HEPES were adjusted by using different cryoprotectant solutions and the respective RNA lipoplexes were investigated under accelerated conditions (25° C.). The pH range from pH 6.2 to 7.2 was tested.
Methods: As a representative cryoprotectant, sucrose was investigated at a concentration of 10% (w/v). A detailed description of the experiments is given in section 2.
In the following study, the long-term stability of RNA lipoplexes in the frozen state was investigated with the combination of the reduced concentration of NaCl and Sucrose in the presence of either HEPES or Histidine as a buffering agent at a pH of 6.5.

[4] = RNA integrity of RNA lipoplexes under stress conditions (40° C.), capillary electrophoresis; details: 21 days, absence of cryoprotectant, by buffering system
Method: RNA lipoplexes are initially incubated under stress conditions (40° C.) in the absence of cryoprotectant. RNA integrity was analyzed by capillary electrophoresis over 21 days. In order to investigate the optimum pH range in the presence of an exemplary cryoprotectant, RNA lipoplexes were incubated in the presence of HEPES and sucrose at 40° C. and RNA integrity was analyzed for 21 days.
RNA integrity was analyzed as a key physicochemical parameter over 21 days.

[5] = Description: The samples were frozen at −30° C. and then transferred to the respective temperature for long-term storage (either −15 or −30° C.). After defined storage time, samples were analyzed and preservation of the colloidal stability was analyzed by measuring the particle size using PCS. These experiments were performed at a total RNA concentration of 0.05 mg/mL.
Method: To investigate the minimum content of representative cryoprotectants as sucrose, trehalose, glucose and mixtures including dextran required for long-term storage at −20° C., RNA lipoplexes were frozen at a fixed cryoprotectant content in combination with varying NaCl concentrations. For monomeric or dimeric molecular cryoprotectants as glucose, sucrose, and trehalose a concentration of 22% (w/v) was adjusted. These formulations were frozen and stored at −15 to −40° C. and long-term stability was investigated by measuring the particle size using PCS after defined storage time.
The samples were frozen and stored at −20° C. After defined storage time, samples were analyzed and preservation of the colloidal stability was analyzed by measuring the particle size.

[6] = compound tested as cryoprotectant
[7] = Example 2.2, accelerated conditions (25° C.)
[8] = Example 2.2, frozen state (−15° C.)
[9] = 70 mM NaCl, up to 10 times freezing

Compound: CCCCCCCC/C=C\CCCCCCCC(=O)OC[C@H](COP(=O)(O)OCCN)OC(=O)CCCCCCC/C=C\CCCCCCCC [DOPE, 1,2-di-(9Z-octadecenoyl)-sn-glycero-3-phosphoethanolamine]
DOPE solubility in ethanol comprising 220 mM DOTMA, mM after Filtration ([1]; Corden Pharma, F0624): 93 mM | DOPE solubility in ethanol comprising 220 mM DOTMA, mM after Filtration ([1]; Corden Pharma, W0650): 106 mM | DOPE solubility in ethanol comprising 220 mM DOTMA, mM after Filtration ([1]; Merck, MK2885-C): 94 mM | DOPE solubility in ethanol comprising 220 mM DOTMA, mM after Filtration ([1]; NOF, 14099612): 103 mM | DOPE solubility in ethanol ([1]; Provider Corden Pharma, Charge Nr. F0624): 56 mM | DOPE solubility in ethanol ([1]; Provider Corden Pharma, Charge Nr. W0650): 59 mM | DOPE solubility in ethanol ([1]; Provider Merck, Charge Nr. MK2885-C): 59 mM | DOPE solubility in ethanol ([1]; Provider NOF, Charge Nr. 14099612): 63 mM

Compound: O=S(=O)(O)CCN1CCOCC1 [MES, 2-(N-morpholino)ethanesulfonic acid]
stabilization of the RNA integrity [3]: comparable stabilization of the RNA integrity

Compound: O=C([O-])[O-].[Na+].[Na+] [carbonate, sodium carbonate]
stabilization of the RNA (RNA integrity) [4]: did not result in comparable stabilization of the RNA

Compound: O=C(O)[C@@H]1CCCN1 [proline]
stabilization of RNA lipoplexes during freezing [2]: can be used as cryoprotectants

Compound: O=P(O)(O)O [sodium phosphate]
stabilization of the RNA (RNA integrity) [4]: comparable results

The next lines start with results.

stabilization of RNA lipoplexes during freezing [2, 6]: can be used as cryoprotectants
Compound: OCC(O)CO [Glycerin, glycerin]

HEPES concentration sufficient for stabilization of the adjusted pH ([3]; 25° C.): ≥ 2.5 mM | stability of the RNA in RNA lipoplexes [3]: best stability | preservation of the particle size and the polydispersity [3]: equally suited | RNA integrity ([3]; Example 4.1, accelerated +25° C., vs current formulation 20 mM NaCl and 22% sucrose): better preserved
Compound: O=S(=O)(O)CCN1CCN(CCO)CC1 [HEPES, 2-[4-(2-hydroxyethyl)piperazin-1-yl]ethanesulfonic acid]
stabilization of the RNA integrity [3, 7]: comparable stabilization of the RNA integrity | stabilization of the RNA integrity [3, 8]: comparable stabilization of the RNA integrity

stability of the RNA in RNA lipoplexes [3]: lower stability | preservation of the particle size and the polydispersity [3]: equally suited | stabilization of the RNA integrity [3, 7]: slightly reduced stability
Compound: N[C@@H](Cc1c[nH]cn1)C(=O)O [Histidine, histidine]
stabilization of the RNA integrity [3, 8]: comparable stabilization of the RNA integrity

stabilization of RNA lipoplexes during freezing [2, 6]: clearly destabilizes the RNA lipoplexes
Compound: N=C(N)NCCC[C@H](N)C(=O)O [arginine]

stabilization of RNA lipoplexes during freezing [2, 6]: can be used as cryoprotectants | stabilization efficacy compared with the other cryoprotectants ([2]; freezing): lower
Compound: OC[C@@H](O)[C@@H](O)[C@H](O)[C@@H](O)CO [sorbitol]

stabilization efficacy between cryoprotectants [5]: No difference | preservation of particle size [2]: acceptable preservation of particle size
Compound: OC[C@H]1O[C@@](CO)(O[C@H]2O[C@H](CO)[C@@H](O)[C@H](O)[C@H]2O)[C@@H](O)[C@@H]1O [sucrose]

stabilization efficacy between cryoprotectants [5]: No difference | trehalose sufficient for stabilization of particle characteristics ([2]; 50 mM NaCl, even after 10 times freezing): ≥ 12.5% | trehalose required for exact preservation of the particle size [2, 9]: ≥ 22.5% | trehalose required for minimum stabilization [2, 9]: ≥ 12.5% | exact preservation of the particle size ([2]; 90 mM NaCl, highest investigated concentration 27.5%): could not be achieved | trehalose required for minimum stabilization ([2]; 90 mM NaCl, up to 10 times freezing): ≥ 15.0% | preservation of particle size [2]: acceptable preservation of particle size
Compound: OC[C@H]1O[C@H](O[C@H]2O[C@H](CO)[C@@H](O)[C@H](O)[C@H]2O)[C@H](O)[C@@H](O)[C@@H]1O [trehalose]
